Results on 33 compounds are retold here after ChEMBL document CHEMBL1932945, “One-pot regioselective synthesis of tetrahydroindazolones and evaluation of their antiproliferative and Src kinase inhibitory activities” (Bioorg Med Chem Lett, 2012).

Each structure is given as a SMILES string. Active and inactive are the calls of the source. The rule behind the calls is not given here.

What is called inhibition is the relative decrease from the control value, in per cent. Broadly, the IC50 is the point on the concentration scale where inhibition reaches its midpoint.

For one experiment, the system named is HT-29. The experiment is described as follows: Antiproliferative activity against human HT-29 cells overexpressing c-Src at 50 uM after 72 hrs by Cell titer assay. The class given is functional. The note with it: for inhibition at 50 µM: HT-29, 72 h.
A further experiment concerns SK-OV-3. In words: Antiproliferative activity against human SKOV3 cells overexpressing c-Src at 50 uM after 72 hrs by Cell titer assay. As to conditions: for inhibition at 50 µM: SK-OV-3, 72 h. Type of experiment: functional.
The target in experiment [1] is Proto-oncogene tyrosine-protein kinase Src (Homo sapiens, UniProt P12931). The experiment is described as follows: Inhibition of His6-tagged c-Src kinase domain using AEEEIYGEFEAKKKK as substrate pre-incubated for 10 mins before substrate addition measured after 30 mins by Transcreener ADP2 FI Assay.
Chain of Proto-oncogene tyrosine-protein kinase Src (P12931 2-536 limits assumed): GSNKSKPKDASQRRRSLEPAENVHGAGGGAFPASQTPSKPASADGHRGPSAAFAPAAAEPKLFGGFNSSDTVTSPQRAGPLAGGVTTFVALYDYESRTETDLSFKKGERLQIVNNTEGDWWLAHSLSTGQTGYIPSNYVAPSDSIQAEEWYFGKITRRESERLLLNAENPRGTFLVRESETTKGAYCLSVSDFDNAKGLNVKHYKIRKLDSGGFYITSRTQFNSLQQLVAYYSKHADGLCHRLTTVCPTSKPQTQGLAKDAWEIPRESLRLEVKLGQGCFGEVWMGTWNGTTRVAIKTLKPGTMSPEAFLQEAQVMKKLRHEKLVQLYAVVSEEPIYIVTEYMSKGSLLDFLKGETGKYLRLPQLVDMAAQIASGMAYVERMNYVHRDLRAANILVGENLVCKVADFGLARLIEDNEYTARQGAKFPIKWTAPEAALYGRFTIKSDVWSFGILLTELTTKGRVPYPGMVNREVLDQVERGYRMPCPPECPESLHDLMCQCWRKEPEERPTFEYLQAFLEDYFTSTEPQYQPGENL

Turning to `CC1(C)OC(=O)c2c(nn(-c3ccc(Cl)cc3)c2-c2ccc(C(C)(C)C)cc2)O1`, the inhibition result in the experiment on HT-29 and with SK-OV-3 was “Active” in each case. The compound also registered an IC50 in experiment [1] of over 150 µM.

In turn, `Cc1ccc(-c2c3c(nn2-c2ccncc2)CC(C)(C)CC3=O)cc1Cl` displayed an inhibition at 50 µM with HT-29 of 65%. Further, in the experiment with SK-OV-3, the inhibition entry was “Active”. The compound further gave an IC50 in experiment [1] of 74.3 µM.

Consider `Cc1ccc(-c2c3c(nn2-c2ccc(Cl)cc2)CC(C)(C)CC3=O)cc1Cl`, for which the inhibition result in the experiment on HT-29 and in the experiment on SK-OV-3 was “Active” throughout. In addition, in experiment [1], inhibition was half-maximal at 132 µM (IC50).

For `COc1ccc(-n2nc3c(c2-c2ccc(Cl)c(Cl)c2)C(=O)CC(C)(C)C3)cc1`, the inhibition result with HT-29 and in the experiment on SK-OV-3 was “Active” in each case. In experiment [1], inhibition was half-maximal at 94.1 µM (IC50).

As for `Cc1ccc(-n2nc3c(c2C2CCCCC2)C(=O)CCC3)cc1`, the inhibition entry in the experiment with HT-29 and in the experiment on SK-OV-3 was “Active” throughout. In experiment [1], the IC50 was found to be 57.7 µM.

`COc1ccc(-n2nc3c(c2-c2ccc(Cl)c(Cl)c2)C(=O)CC(C)(C)C3)cc1O`: the inhibition entry in the experiment with HT-29 and with SK-OV-3 was “Active” in each case. Also, the IC50 in experiment [1] is over 150 µM.

On to `CC1(C)CC(=O)c2c(nn(-c3ccc([N+](=O)[O-])cc3)c2-c2ccc(Cl)c(Cl)c2)C1`, for which the inhibition entry in the experiment on HT-29 and in the experiment on SK-OV-3 was “Active” in each case. Further, the concentration for half-maximal inhibition (IC50) in experiment [1] is over 150 µM.

As to `COc1cccc2c1C(=O)c1c(O)c3c(c(O)c1C2=O)C[C@@](O)(C(=O)CO)C[C@@H]3O[C@H]1C[C@H](N)[C@H](O)[C@H](C)O1`, the inhibition entry with HT-29 and in the experiment with SK-OV-3 was “Active” throughout.

On to `CC1(C)CC(=O)c2c(nn(-c3ccc(Cl)c(Cl)c3)c2-c2ccc(Cl)cc2)C1`, for which the inhibition entry in the experiment with HT-29 and with SK-OV-3 was “Active” each time. In experiment [1], this compound had a half-maximal inhibitory concentration (IC50) of 86 µM.

For `Cc1ccc(-n2nc3c(c2-c2ccc(C(C)(C)C)cc2)C(=O)CC(C)(C)C3)cc1`, the inhibition entry in the experiment on HT-29 and with SK-OV-3 was “Active” in each case. The same compound gave an IC50 in experiment [1] of over 150 µM.

With `CC1(C)CC(=O)c2c(nn(-c3ccc(Cl)cc3)c2-c2ccc(C(C)(C)C)cc2)C1`, the inhibition entry in the experiment on HT-29 and in the experiment with SK-OV-3 was “Active” in each case. Moreover, the IC50 in experiment [1] was over 150 µM.

Take `CC1(C)CC(=O)c2c(nn(-c3ccc[nH]3)c2-c2ccc(Cl)c(Cl)c2)C1`: the inhibition result in the experiment with HT-29 and in the experiment on SK-OV-3 was “Active” each time. Also, the 50% inhibitory concentration (IC50) in experiment [1] was over 150 µM.

With `O=C1CCCc2nn(-c3cccs3)c(-c3ccc(Cl)c(Cl)c3)c21`, the values for the inhibition at 50 µM in the experiment on HT-29 and in the experiment on SK-OV-3 were 62% and 58%, respectively. In experiment [1], this compound had a 50% inhibitory concentration (IC50) of over 150 µM.

Take `O=C1CCCc2nn(-c3ccc(O)cc3)c(-c3ccc(Cl)c(Cl)c3)c21`: the inhibition result with HT-29 and with SK-OV-3 was “Active” each time. The compound also had an IC50 in experiment [1] of over 150 µM.

For the compound `CC1(C)OC(=O)c2c(nn(-c3ccc(Cl)cc3)c2C2CCCCC2)O1`, the inhibition entry in the experiment on HT-29 and with SK-OV-3 was “Active” each time. The compound also yielded an IC50 in experiment [1] of over 150 µM.

Take `CC1(C)CC(=O)c2c(nn(-c3ccc([N+](=O)[O-])cc3)c2C2CCCCC2)C1`: the inhibition result in the experiment with HT-29 and in the experiment on SK-OV-3 was “Active” each time. In experiment [1], this compound returned an IC50 of over 150 µM.

The compound `O=C1CCCc2nn(-c3ccccc3)c(-c3ccc(Cl)c(Cl)c3)c21` registered an inhibition at 50 µM with HT-29 of 65%. In addition, the inhibition entry in the experiment with SK-OV-3 was “Active”. In addition, the IC50 in experiment [1] was 65.8 µM.

In the experiment on HT-29, `COc1ccc(-n2nc3c(c2-c2ccc(C(C)(C)C)cc2)C(=O)CC(C)(C)C3)cc1OC` had an inhibition at 50 µM of 65%. The inhibition entry in the experiment with SK-OV-3 was “Active”. For the same compound, the half-maximal inhibitory concentration (IC50) in experiment [1] is over 150 µM.

For `O=C1CCCc2nn(-c3cccc(Cl)c3)c(C3CCCCC3)c21`, the inhibition entry in the experiment with HT-29 and in the experiment on SK-OV-3 was “Active” throughout. In experiment [1], the IC50 was determined as 58.4 µM.

Regarding `COc1cccc(-n2nc3c(c2-c2ccc(C)c(Cl)c2)C(=O)CCC3)c1`, the inhibition entry in the experiment with HT-29 and with SK-OV-3 was “Active” each time. This compound also yielded an IC50 in experiment [1] of 82.7 µM.

For the compound `CC1(C)CC(=O)c2c(nn(-c3ccccc3)c2-c2ccc(Cl)c(Cl)c2)C1`, the inhibition result with HT-29 and with SK-OV-3 was “Active” each time. In experiment [1], this compound had an IC50 of 62.1 µM.

`CC1(C)CC(=O)c2c(nn(-c3ccc(O)cc3)c2-c2ccc(Cl)c(Cl)c2)C1`: the inhibition entry in the experiment with HT-29 and in the experiment with SK-OV-3 was “Active” in each case. Further, 66.6 µM corresponded to half-maximal inhibition in experiment [1] (IC50).

For the compound `O=C1CCCc2nn(-c3ccccc3F)c(-c3ccc(Cl)c(Cl)c3)c21`, the inhibition result with HT-29 and with SK-OV-3 was “Active” in each case. For the same compound, the IC50 in experiment [1] is over 150 µM.

As to `COc1ccc(-n2nc3c(c2-c2ccc(Cl)c(Cl)c2)C(=O)CCC3)cc1`, the inhibition result with HT-29 and in the experiment with SK-OV-3 was “Active” throughout. This compound also showed an IC50 in experiment [1] of over 150 µM.

As to `COc1ccc(-n2nc3c(c2-c2ccc(C(C)(C)C)cc2)C(=O)CC(C)(C)C3)cc1`, the inhibition entry with HT-29 and in the experiment on SK-OV-3 was “Active” in each case. The compound further gave an IC50 in experiment [1] of 35.1 µM.

As to `CC1(C)CC(=O)c2c(nn(-c3cccs3)c2-c2ccc(Cl)c(Cl)c2)C1`, the inhibition result in the experiment with HT-29 and in the experiment on SK-OV-3 was “Active” throughout. This compound also came in with an IC50 in experiment [1] of over 150 µM.

`Cc1ccc(-n2nc3c(c2-c2ccc(Cl)c(Cl)c2)C(=O)CC(C)(C)C3)cc1`: the inhibition result in the experiment on HT-29 and with SK-OV-3 was “Active” in each case. This compound had an IC50 in experiment [1] of over 150 µM.

For `O=C1CCCc2nn(-c3ccc(Cl)cc3)c(-c3ccc(Cl)c(Cl)c3)c21`, the inhibition result in the experiment with HT-29 and in the experiment on SK-OV-3 was “Active” throughout. In experiment [1], this compound showed an IC50 of 81 µM.

With `COc1ccc(-n2nc3c(c2-c2ccc(Cl)c(Cl)c2)C(=O)CCC3)cc1O`, the inhibition entry in the experiment on HT-29 and in the experiment with SK-OV-3 was “Active” throughout. Moreover, in experiment [1], the IC50 is over 150 µM.

With `O=C1CCCc2nn(-c3ccc([N+](=O)[O-])cc3)c(-c3ccc(Cl)c(Cl)c3)c21`, the inhibition entry in the experiment on HT-29 and in the experiment with SK-OV-3 was “Active” each time. The compound also came in with a concentration for half-maximal inhibition (IC50) in experiment [1] of over 150 µM.

As to `Cc1ccc(-c2c3c(nn2-c2ccc[nH]2)CC(C)(C)CC3=O)cc1Cl`, the inhibition entry in the experiment on HT-29 and with SK-OV-3 was “Active” throughout. In experiment [1], this compound yielded an IC50 of over 150 µM.

For the compound `Cc1ccc(-n2nc3c(c2-c2ccc(Cl)c(Cl)c2)C(=O)CCC3)cc1`, the inhibition at 50 µM in the experiment with HT-29 was 48%; in the experiment on SK-OV-3 it was 49%. Also, the IC50 in experiment [1] was over 150 µM.

Regarding `CC1(C)CC(=O)c2c(nn(-c3cccs3)c2C2CCCCC2)C1`, the inhibition at 50 µM in the experiment with HT-29 came out at 48%; in the experiment on SK-OV-3 it was 49%. The half-inhibitory concentration (IC50) in experiment [1] came to 77.3 µM.
